The series in a line: Comparison of solubility of precursor compounds according to the kind of reaction solvents (observation with the naked eye). The note with it: for Solubility in 2-methyl-3-butene-2-ol (the present invention), 60° C. / Solubility in 2-methyl-3-butene-2-ol (the present invention), room temp: 1.0 ml 2-methyl-3-butene-2-ol; for Solubility in 2-methyl-3-butene-2-ol (the present invention), 60° C. / Solubility in 2-methyl-3-butyne-2-ol (the present invention), 60° C. / Solubility in t-amyl alcohol (KR 10-0789847), 60° C.: shaking 1 minute at 60° C.; for Solubility in 2-methyl-3-butene-2-ol (the present invention), 60° C. / Solubility in 2-methyl-3-butene-2-ol (the present invention), room temp / Solubility in 2-methyl-3-butyne-2-ol (the present invention), 60° C. / Solubility in 2-methyl-3-butyne-2-ol (the present invention), room temp / Solubility in t-amyl alcohol (KR 10-0789847), 60° C. / Solubility in t-amyl alcohol (KR 10-0789847), room temp: naked eye; for Solubility in 2-methyl-3-butene-2-ol (the present invention), room temp / Solubility in 2-methyl-3-butyne-2-ol (the present invention), room temp / Solubility in t-amyl alcohol (KR 10-0789847), room temp: shaking 1 minute at room temperature; for Solubility in 2-methyl-3-butyne-2-ol (the present invention), 60° C. / Solubility in 2-methyl-3-butyne-2-ol (the present invention), room temp: 1.0 ml 2-methyl-3-butyne-2-ol; for Solubility in t-amyl alcohol (KR 10-0789847), 60° C. / Solubility in t-amyl alcohol (KR 10-0789847), room temp: 1.0 ml t-amyl alcohol; for State of solution dissolved at 60° C. after cooling to room temperature, 2-methyl-3-butene-2-ol / 2-methyl-3-butyne-2-ol: solvents of the present invention, dissolved by heating to 60° C., cooled to room temperature; for State of solution dissolved at 60° C. after cooling to room temperature, t-amyl alcohol: cooled to room temperature after the lapse of time. The class given is physicochemical. On the procedure: Experiments for comparing the solubility in the 2-methyl-3-butene-2-ol solvent and 2-methyl-3-butyne-2-ol solvent according to the present invention, and the t-amyl alcohol solvent of the prior art (KE 10-0789847) were performed. Each of the precursors of FP-CIT, FDG, FLT, FMISO and FC119S in solid states was put in a vial, and 1.0 ml of each solvent was added thereto, followed by shaking at room temperature and 60° C. for 1 minutes, respectively, for dissolution.

`CN(C(=O)OC(C)(C)C)c1ccc(-c2nc3ccc(OC[C@@H](COS(=O)(=O)c4ccc([N+](=O)[O-])cc4)OC4CCCCO4)cc3s2)cn1` (stereo partly drawn) [FC119S, (2S)-3-((2-(6-((tert-butoxycarbonyl) (methyl)amino)pyridin-3-yl)benzo[d]thiazol-6-yl)oxy)-2-((tetrahydro-2H-pyran-2-yl)oxy)propyl 4-nitrobenzenesulfonate]: the “Solubility in 2-methyl-3-butene-2-ol (the present invention), 60° C.” value (shortened to “Solubility in 2-methyl-3-butene-2-ol … 60° C.”) was “Dissolved”; the “Solubility in 2-methyl-3-butene-2-ol (the present invention), room temp” value (“Solubility in 2-methyl-3-butene-2-ol … room temp” for short) was “Dissolved”; the “Solubility in 2-methyl-3-butyne-2-ol (the present invention), 60° C.” value (shortened to “Solubility in 2-methyl-3-butyne-2-ol … 60° C.”) was “Dissolved”; the “Solubility in 2-methyl-3-butyne-2-ol (the present invention), room temp” value (“Solubility in 2-methyl-3-butyne-2-ol … room temp” for short) was “Dissolved”. Besides, the “Solubility in t-amyl alcohol (KR 10-0789847), 60° C.” value (shortened to “Solubility … (KR 10-0789847), 60° C.”) is listed as “Insoluble” and the “Solubility in t-amyl alcohol (KR 10-0789847), room temp” value is “Insoluble”.
Regarding `Cc1cn([C@H]2C[C@H](OS(=O)(=O)c3ccc([N+](=O)[O-])cc3)[C@@H](COC(c3ccccc3)(c3ccccc3)c3ccccc3)O2)c(=O)n(C(=O)OC(C)(C)C)c1=O` [FLT, 3-N-Boc-5′-O-trityl-3′-O-nosyl-thymidine], the “Solubility in 2-methyl-3-butene-2-ol … 60° C.” value is recorded as “Dissolved”; the “Solubility in 2-methyl-3-butene-2-ol … room temp” value is “Dissolved”; the “Solubility in 2-methyl-3-butyne-2-ol … 60° C.” value is listed as “Dissolved”; the “Solubility in 2-methyl-3-butyne-2-ol … room temp” value is recorded as “Insoluble”. Besides, the “Solubility … (KR 10-0789847), 60° C.” value is “Insoluble”; the “Solubility in t-amyl alcohol (KR 10-0789847), room temp” value is recorded as “Insoluble”; the “State of solution dissolved at 60° C. after cooling to room temperature, 2-methyl-3-butene-2-ol / 2-methyl-3-butyne-2-ol” value was “not precipitated as solids”.
Turning to `CC(=O)OC[C@H]1O[C@@H](OC(C)=O)[C@@H](OS(=O)(=O)C(F)(F)F)[C@@H](OC(C)=O)[C@@H]1OC(C)=O` [FDG, 1,3,4,6-tetra-O-acetyl-2-O-trifluoro-methanesulfonyl-beta-D-mannopyranose], the “Solubility in 2-methyl-3-butene-2-ol … 60° C.” value is recorded as “Dissolved”; the “Solubility in 2-methyl-3-butene-2-ol … room temp” value was “Dissolved”; the “Solubility in 2-methyl-3-butyne-2-ol … 60° C.” value is reported as “Dissolved”; the “Solubility in 2-methyl-3-butyne-2-ol … room temp” value is given as “Dissolved”. Also, the “Solubility … (KR 10-0789847), 60° C.” value is reported as “Dissolved”; the “Solubility in t-amyl alcohol (KR 10-0789847), room temp” value is on record as “Insoluble”; the “State of solution dissolved at 60° C. after cooling to room temperature, t-amyl alcohol” value is given as “precipitated again as solids”.
`CCC(Oc1ccc2ccccc2c1)OS(C)(=O)=O` (centres unmarked) [1-(naphthalene-2-yloxy)propyl methanesulfonate]: the “Solubility in 2-methyl-3-butene-2-ol … 60° C.” value was “Dissolved” and the “Solubility in 2-methyl-3-butene-2-ol … room temp” value is “Dissolved”.
With `O=[N+]([O-])c1nccn1CC(O)CF` (centres unmarked) [FMISO], the “Solubility in 2-methyl-3-butene-2-ol … 60° C.” value is listed as “Dissolved”; the “Solubility in 2-methyl-3-butene-2-ol … room temp” value is recorded as “Insoluble”; the “Solubility in 2-methyl-3-butyne-2-ol … 60° C.” value is “Dissolved”; the “Solubility in 2-methyl-3-butyne-2-ol … room temp” value is “Dissolved”. Besides, the “Solubility … (KR 10-0789847), 60° C.” value is reported as “Dissolved”; the “Solubility in t-amyl alcohol (KR 10-0789847), room temp” value was “Insoluble”; the “State of solution dissolved at 60° C. after cooling to room temperature, 2-methyl-3-butene-2-ol / 2-methyl-3-butyne-2-ol” value was “not precipitated as solids”; the “State of solution dissolved at 60° C. after cooling to room temperature, t-amyl alcohol” value is “precipitated again as solids”.
For the molecule `CS(=O)(=O)OCCCOc1ccc2ccccc2c1` [3-(naphthalene-2-yloxy)propyl methanesulfonate], the “Solubility in 2-methyl-3-butene-2-ol … 60° C.” value is listed as “Dissolved” and the “Solubility in 2-methyl-3-butene-2-ol … room temp” value is “Dissolved”.

The values above are taken from patent publication US11306091B2, “Process for producing fluorinated compounds using alcohol solvent having unsaturated hydrocarbon” (FUTURECHEM CO., LTD, priority 2019, dated 2022).
